From US8093262B2 (priority 2005, dated 2012)
Read-outs that look alike come from different tables or passages of the source.

Assays:
Swiss Webster NIH mice = assay: Formalin test for antinociceptive activity (paw licking/biting); assay type: in vivo; conditions: 1 mg/kg i.p.
Method: The formalin test for antinociceptive activity is described in numerous publications, e.g., Hunskaar, S., O. B. Fasmer, and K. Hole, J. Neurosci. […] The formalin test is accepted as an art recognized model of persistent clinical pain.
Male Swiss Webster NIH mice (20-30 g; Harlan, San Diego, Calif.) were used in the experiments described herein. Food was withdrawn on the day of experiment. Mice were placed in Plexiglass jars for at least 1 hour to accommodate to the environment. Following the accommodation period, mice were weighed and given either a huperzine compound administered intraperitoneal (i.p.) or oral (p.o.), or the appropriate volume of vehicle (10% Tween-80). Fifteen minutes after the i.p. dosing, and 30 minutes after the p.o. dosing mice were injected with formalin (20 μL of 5% formaldehyde solution in saline) into the dorsal surface of the right hind paw. Mice were transferred to the Plexiglass jars and monitored for the amount of time spent licking or biting the injected paw. Periods of licking and biting were recorded in 5 minute intervals for 40 minutes after the formalin injection. […] The early phase (acute) of the formalin response is measured as licking/biting between 0-5 minutes, and the late phase (inflammatory) is measured from 10-40 minutes. Differences between vehicle and drug treated groups are analyzed by one-way analysis of variance (ANOVA). […]

mice [1] = assay: Maximal Electroshock (MES) seizure test, mice, i.p.; assay type: in vivo; conditions: 1 mg/kg
Method: This toxicity profile is generally not observed in humans. Thus, a higher relative dose of a huperzine compound is tolerated in humans compared to rodents.
(§1) Seizure testing was carried out as follows.

mice [2] = assay: Subcutaneous Metrazol (SCMET / scPTZ) seizure test, mice, i.p.; assay type: in vivo
Method: as §1

mice [3] = assay: Toxicity model (TOX), rotorod, mice; assay type: in vivo; conditions: for TOX observation code: i.p.; for TOX N/F (mice showing an effect / mice tested): mouse, in vivo, ip
rats [4] = assay: Subcutaneous Metrazol (SCMET / scPTZ) seizure test, rats, oral; assay type: in vivo
Method: (§2) Peak anticonvulsant activity was observed one-hour after p.o. administration of 1 mg/kg.

rats [5] = assay: Toxicity (TOX) / minimal motor impairment, rats; assay type: in vivo; conditions: for Behavioral motor impairment, animals affected: rat, in vivo, po
Method: as §2

mice [6] = assay type: in vivo; conditions: for N/F, Time to Peak Effect: IP, 32 mA, 0.83 mg/kg; for COMMENT (observed effects): ip
Method: as §1

[7] = assay type: physicochemical
patients = conditions: human, in vivo; cited from earlier work
mice [8] = conditions: established antiepileptic drugs; cited from earlier work

SMILES: C/C=C1\[C@H]2C=C(C)C[C@]1(N)c1ccc(=O)[nH]c1C2 [Huperzine A]
- Inhibition of phase 1 (acute) pain response (Swiss Webster NIH mice): complete inhibition
- Inhibition of phase 2 (inflammatory) pain response (Swiss Webster NIH mice): complete inhibition
- Protection in the mouse MES test (FIG. 1) (mice [1]): time-dependent protection
- SCMET N/F (mice showing an effect / mice tested) (mice [2]; 1 mg/kg SOL, 0.5 h): 3/5
- SCMET N/F (mice showing an effect / mice tested) (mice [2]; 3 mg/kg SUS, 0.5 h): 1/1
- SCMET N/F (mice showing an effect / mice tested) (mice [2]; 10 mg/kg SUS, 4.0 h): 1/1
- TOX observation code (mice [3]; 1 mg/kg SOL, 0.5 h): 4/4 (T)^2
- TOX observation code (mice [3]; 1 mg/kg SOL, 4.0 h): 2/2 (T)
- TOX observation code (mice [3]; 3 mg/kg SUS, 4.0 h): 4/4 (T)
- TOX observation code (mice [3]; 10 mg/kg SUS, 4.0 h): 2/2 (T)
- TOX observation code (mice [3]; 30 mg/kg SUS, 0.5 h): 4/4 (D)^3
- TOX observation code (mice [3]; 100 mg/kg SUS, 0.5 h): 8/8 (D)
- TOX observation code (mice [3]; 300 mg/kg SUS, 0.5 h): 4/4 (D)
- TD50 (mice [3]; mice): 0.83 mg/kg
- TOX N/F (mice showing an effect / mice tested) (mice [3]; 0.1 mg/kg, 4 h): 0/4
- TOX N/F (mice showing an effect / mice tested) (mice [3]; 0.3 mg/kg, 4 h): 0/4
- TOX N/F (mice showing an effect / mice tested) (mice [3]; 1 mg/kg, 0.5 h): 4/4 (T)^2
- TOX N/F (mice showing an effect / mice tested) (mice [3]; 1 mg/kg, 4 h): 2/2 (T)
- TOX N/F (mice showing an effect / mice tested) (mice [3]; 3 mg/kg, 0.5 h): 8/8
- TOX N/F (mice showing an effect / mice tested) (mice [3]; 3 mg/kg, 4 h): 4/4 (T)
- TOX N/F (mice showing an effect / mice tested) (mice [3]; 10 mg/kg, 0.5 h): 4/4
- TOX N/F (mice showing an effect / mice tested) (mice [3]; 10 mg/kg, 4 h): 2/2 (T)
- TOX N/F (mice showing an effect / mice tested) (mice [3]; 30 mg/kg, 0.5 h): 4/4 (D)^3
- TOX N/F (mice showing an effect / mice tested) (mice [3]; 100 mg/kg, 0.5 h): 8/8 (D)
- TOX N/F (mice showing an effect / mice tested) (mice [3]; 300 mg/kg, 0.5 h): 4/4 (D)
- Time of peak anticonvulsant activity (rats [4]; after p.o. administration of 1 mg/kg): one-hour
- Time of peak activity post administration (rats [4]; oral, 1 mg/kg, rat MES and SCMET time course): between 30 minutes and two hours
- Toxicity (rats [5]; oral, 1 mg/kg, any of the animals): no toxicity
- Behavioral motor impairment, animals affected (rats [5]; 2 mg/kg): 75%
- Behavioral motor impairment, animals affected (rats [5]; 4 mg/kg): 100%
- Protection in the mouse 6 Hz test (FIG. 1) (mice [6]; 0.8 mg/kg): time-dependent protection
- N/F, Time to Peak Effect (mice [6]; 0.25 h): 1/4
- N/F, Time to Peak Effect (mice [6]; 0.5 h): 1/4
- N/F, Time to Peak Effect (mice [6]; 1.0 h): 4/4
- N/F, Time to Peak Effect (mice [6]; 2.0 h): 2/4
- N/F, Time to Peak Effect (mice [6]; 4.0 h): 0/4
- Protection against 6 Hz seizures (FIG. 2) (mice [6]; mouse, in vivo): dose-dependent protection
- COMMENT (observed effects) (mice [6]; mouse, in vivo, 0.18 mg/kg): Minimal motor impairment
- COMMENT (observed effects) (mice [6]; mouse, in vivo, 0.2 mg/kg): Tremors
- COMMENT (observed effects) (mice [6]; mouse, in vivo, 0.35 mg/kg): Minimal motor impairment
- Solubility in the methyl cellulose solvent [7]: not soluble
- Adverse effects in patients (patients): adverse effects were noted infrequently

SMILES: CC1(C)O[C@@H]2[C@@H](CO[C@@]3(COS(N)(=O)=O)OC(C)(C)O[C@@H]23)O1 [topiramate]
- Efficacy in the 6 Hz psychomotor seizure model (mice [8]): limited efficacy

SMILES: NC(=O)N1c2ccccc2C=Cc2ccccc21 [carbamazepine]
- Efficacy in the 6 Hz psychomotor seizure model (mice [8]): limited efficacy

SMILES: Nc1nnc(-c2cccc(Cl)c2Cl)c(N)n1 [lamotrigine]
- Efficacy in the 6 Hz psychomotor seizure model (mice [8]): limited efficacy

SMILES: O=C1NC(=O)C(c2ccccc2)(c2ccccc2)N1 [phenyloin]
- Efficacy in the 6 Hz psychomotor seizure model (mice [8]): limited efficacy
